Positions of bridges follow the written chain, without caps; N, C: chain ends. Residues, ends and D or L forms follow the SMILES beside them. *: point of attachment. Biotin = O=C1N[C@H]2[C@H](CS[C@H]2CCCCC(=O)*)N1
What was measured:
CAT2 recombinant (rCAT2) = experiment: SPR, rCAT2 immobilized on NTA chip; format: binding, Arabidopsis thaliana; details: His-tagged rCAT2 immobilized at app. 4,500 RU, analytes at the same concentration, 20 °C
Procedure: (§1) N-terminally 6xHis-tagged AtPNP-A and CAT2 proteins were expressed in BL21 (DE3) One Shot E. coli cells (Life Technologies), purified by affinity chromatography with Ni–NTA beads (Qiagen) and HisTrap HP column (GE Healthcare Lifesciences) as described in[21]. The purity of preparations was verified on 12.5% SDS-PAGE, stained with Coomassie Brilliant Blue (Bio-Rad). Protein identities were confirmed in MS analysis, and protein concentration was determined according to the method of Bradford using BSA as a standard.
SPR experiments were performed at 20 °C on Biacore T100 instrument operated using Biacore T100 control software (version 2.0.2, GE Healthcare Lifesciences) using Series S CM5 or NTA sensor chips as described in[21]. […]
Figure 2 AtPNP-A directly interacts with Arabidopsis CAT2 and bovine liver CAT in vitro. […] The models were analyzed and visualized using UCSF Chimera (version 1.10.2; https://www.cgl.ucsf.edu/chimera/)[55]. […]

[1] = system: mitogen-activated protein kinase (MAPK) pathway; experiment: MAPK pathway activation; details: data not shown
CAT2 = experiment: Zymogram of CAT isoforms from treated seedlings; format: in vivo, Arabidopsis thaliana; details: 1 nM peptide, sprayed 20 min before harvesting; mean ± SD, n = 3, Student's t-test P < 0.05
Procedure: Enzymatic activity of CAT isozymes and total CAT activities of protein extracted from WT and atpnp-a or cat2-2 mutant lines, when indicated sprayed with 1 nM pAtPNP-A or pScr 20 min before harvesting, were determined zymographically and spectrophotometrically, as described in[56]. Relative quantification of intensity of bands corresponding to different CAT isoforms was performed with ImageJ version 1.48 (https://imagej.nih.gov/ij/). Enzymatic activity of the rCAT2 in the presence of absence of 100 nM rAtPNP-A, pAtPNP-A or pScr were determined with the use of Amplex Red catalase assay kit (Invitrogen) according to the manufacturer’s instructions.
Figure 3 AtPNP-A directly interacts with CAT2 to modulate its enzymatic activity in vitro. (a) Zymogram depicting changes in the enzymatic activity of CAT isoforms extracted from wild type (WT) or cat2-2 knockout mutant seedlings in response to 1 nM pAtPNP-A or pScr. Densitometric semi-quantification of bands corresponding to CAT2, normalized to the loading control (dark-coloured band on zymogram) for WT samples treated with 1 nM pAtPNP-A or pScr (mean ± SD, Student’s t-test, n = 3, P < 0.05). […] (b) Total CAT activity in protein extracted from WT seedlings assayed with Amplex Red catalase assay kit in the presence of 1 nM pAtPNP-A, rAtPNP-A, or pScr. […] (c) Enzymatic activity of rCAT2 in the presence of 100 nM pAtPNP-A, rAtPNP-A, or pScr.

rCAT2 = experiment: SPR of CAT2 and AtPNP-A recombinant proteins, CM5 chip, both configurations; format: binding, Arabidopsis thaliana; details: amine coupling, 20 °C
Procedure: as §1
SPR experiments were performed at 20 °C on Biacore T100 instrument operated using Biacore T100 control software (version 2.0.2, GE Healthcare Lifesciences) using Series S CM5 or NTA sensor chips as described in[21]. Kinetic analyses were performed at the flow of 100 μL min^−1 with pAtPNP-A (at 3.78 μM and consecutive twofold dilutions; 11 injections included) employed as a ligand and bovine liver CAT (C-40; Sigma) used as an analyte and immobilized on the active surface of the Series S CM5 sensor chip with amine coupling kit, while the surface regeneration was done with solution of glycine, pH 2.0, and the final sensorgram was generated with Scrubber (BioLogic Software Pty Ltd).
Supplementary Figure S3. In vitro association of AtPNP-A and CAT2 recombinant proteins.
(a) Recombinant protein preparations used in SPR analyses. […]

| Molecule | SPR binding response to rCAT2 (CAT2 recombinant (rCAT2)) | Activation of MAPK pathway [1] | CAT2 activity in WT plants (zymogram) (CAT2) | SPR binding of recombinant AtPNP-A to CAT2 (rCAT2) |
| --- | --- | --- | --- | --- |
| CC(C)C[C@@H]1NC(=O)[C@H](CC(N)=O)NC(=O)[C@H](CC(N)=O)NC(=O)[C@H](CCCCN)NC(=O)[C@H](C(C)C)NC(=O)CNC(=O)[C@H](C(C)C)NC(=O)[C@H](C(C)C)NC(=O)[C@H](CC(C)C)NC(=O)[C@H]([C@@H](C)O)NC(=O)[C@H](CCC(=O)O)NC(=O)[C@H](CCCNC(=N)N)NC(=O)[C@H](CCC(N)=O)NC(=O)[C@H]([C@@H](C)O)NC(=O)CNC(=O)[C@H](Cc2ccc(O)cc2)NC(=O)[C@@H](NC(=O)[C@H](C)NC(=O)[C@H](CO)NC(=O)[C@H](CCCNC(=N)N)NC(=O)[C@@H](NC(=O)[C@H](Cc2ccc(O)cc2)NC(=O)[C@@H]2CCCN2)[C@@H](C)O)CSSC[C@@H](C(=O)NCC(=O)N[C@@H](CCCNC(=N)N)C(=O)N[C@@H](CCCNC(=N)N)C(=O)N[C@@H](Cc2ccc(O)cc2)C(=O)N[C@@H](CCCNC(=N)N)C(=O)N[C@H](C(=O)N[C@@H](CCCNC(=N)N)C(=O)N[C@@H](CCCCNC(=O)CCCC[C@@H]2SC[C@@H]3NC(=O)N[C@@H]32)C(=O)O)C(C)C)NC(=O)[C@H](C)NC(=O)[C@H](CCCNC(=N)N)NC(=O)CNC(=O)[C@H](CC(N)=O)NC(=O)[C@H](CCC(N)=O)NC(=O)[C@H](Cc2c[nH]c3ccccc23)NC1=O [pAtPNP-A] (H-PYTRSACYGTQRETLVVGVKNNLWQNGRACGRRYRVRK(Biotin)-OH; disulfide 7-30; N-terminus and C-terminus assumed) | significant accumulation of the biologically active analyte | does not activate mitogen-activated protein kinase (MAPK) pathway | increased CAT2 activity in WT plants compared to the mutants | – |
| AtPNP-A: An A. thaliana PNP, termed AtPNP-A (At2g18660; Q9ZV52) | – | – | – | specific AtPNP-A and CAT2 interaction in vitro |
